Test results reported in patent EP4745135A1 (Gluetacs Therapeutics (Shanghai) Co., Ltd., priority 2023, dated 2025).
Values belong to the compound of their own block, whether it stands above or below them.

Tests used:
[1] = target: T1, human Cereblon WT GST-tagged protein (Homo sapiens, UniProt Q96SW2); test: CRBN-binding affinity, HTRF (CEREBLON BINDING kit); conditions: for inhibition at 0.5 µM: read-out: Inhibition Rate at 0.5 µM (%); for inhibition at 2 µM: read-out: Inhibition Rate at 2 µM (%)
T1 construct: purchased CISBIO 64BDCRBNPEH

[2] = tested on: Human multiple myeloma cell (MM.1S); test: Tumor cell proliferation inhibition (CellTiter-Meiluncell luminescent cell viability assay); conditions: for inhibition at 0.01 µM / inhibition at 0.5 µM: Homo sapiens, MM1.S, 96 h; for inhibition at 0.01 µM: read-out: Inhibition Rate at 10 nM (%); for inhibition at 0.5 µM: read-out: Inhibition Rate at 500 nM (%)
[3] = tested on: Human breast cancer cell (MCF-7); test: as above; conditions: MCF7, 96 h; for inhibition at 0.01 µM: read-out: Inhibition Rate at 10 nM (%); for inhibition at 0.5 µM: read-out: Inhibition Rate at 500 nM (%)
CK1α = target: T2, CK1α (Homo sapiens, UniProt P48729+Q96SW2); test: Western blot, degradation of substrate protein in hPBMCs; type: cell-based
T2 construct: effects of the compounds of the present disclosure on the expression of target proteins in cells; endogenous in cells; host or cells: human PBMCs (Milecell Biotechnologies)

IKZF1 = target: T3, IKZF1 (Homo sapiens, UniProt Q13422+Q96SW2); test: as above; type: cell-based
T3 construct: effects of the compounds of the present disclosure on the expression of target proteins in cells; endogenous in cells; host or cells: human PBMCs (Milecell Biotechnologies)

IKZF2 = target: T4, IKZF2 (Homo sapiens, UniProt Q96SW2+Q9UKS7); test: as above; type: cell-based
T4 construct: effects of the compounds of the present disclosure on the expression of target proteins in cells; endogenous in cells; host or cells: human PBMCs (Milecell Biotechnologies)

IKZF3 = target: T5, IKZF3 (Homo sapiens, UniProt Q96SW2+Q9UKT9); test: as above; type: cell-based
T5 construct: effects of the compounds of the present disclosure on the expression of target proteins in cells; endogenous in cells; host or cells: human PBMCs (Milecell Biotechnologies)

WEE1 = target: T6, WEE1 (Homo sapiens, UniProt P30291+Q96SW2); test: as above; type: cell-based
T6 construct: effects of the compounds of the present disclosure on the expression of target proteins in cells; endogenous in cells; host or cells: human PBMCs (Milecell Biotechnologies)

GSPT1 = test: as above; type: cell-based, Human
[4] = tested on: Human myeloid monocytic leukemia cell (MV-4-11); test: Tumor cell proliferation inhibition (CellTiter-Meiluncell luminescent cell viability assay); conditions: MV4-11, 96 h; for inhibition at 0.01 µM: read-out: Inhibition Rate at 10 nM (%); for inhibition at 0.5 µM: read-out: Inhibition Rate at 500 nM (%)
[5] = tested on: Human acute T lymphocytic leukemia cell (Molt4); test: as above; conditions: MOLT-4, 96 h
[6] = Western blot, 24 hours of compound treatment, compounds tested at 50 nM and 500 nM (concentration for the table not stated)
[7] = 24 hours treatment, compounds at 50 nM and 500 nM (concentration behind the class not stated)

T6 sequence (P30291 whole entry): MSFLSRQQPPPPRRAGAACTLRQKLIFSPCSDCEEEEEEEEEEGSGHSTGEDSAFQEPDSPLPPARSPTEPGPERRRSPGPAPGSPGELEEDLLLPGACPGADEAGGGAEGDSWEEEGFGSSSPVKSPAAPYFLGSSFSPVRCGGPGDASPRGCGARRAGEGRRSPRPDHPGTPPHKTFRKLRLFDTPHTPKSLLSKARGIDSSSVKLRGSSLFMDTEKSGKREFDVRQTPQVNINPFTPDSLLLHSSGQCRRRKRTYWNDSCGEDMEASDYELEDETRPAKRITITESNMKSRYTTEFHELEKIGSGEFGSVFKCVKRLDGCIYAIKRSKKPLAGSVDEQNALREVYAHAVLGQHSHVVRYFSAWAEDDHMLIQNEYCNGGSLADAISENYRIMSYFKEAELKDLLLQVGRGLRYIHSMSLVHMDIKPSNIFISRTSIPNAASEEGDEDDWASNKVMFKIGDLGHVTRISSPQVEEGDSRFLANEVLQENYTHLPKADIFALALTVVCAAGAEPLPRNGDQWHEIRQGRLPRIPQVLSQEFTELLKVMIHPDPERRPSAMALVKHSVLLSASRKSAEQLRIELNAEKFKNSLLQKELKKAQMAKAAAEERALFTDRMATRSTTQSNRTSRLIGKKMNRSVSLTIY
T6 sequence (Q96SW2 whole entry): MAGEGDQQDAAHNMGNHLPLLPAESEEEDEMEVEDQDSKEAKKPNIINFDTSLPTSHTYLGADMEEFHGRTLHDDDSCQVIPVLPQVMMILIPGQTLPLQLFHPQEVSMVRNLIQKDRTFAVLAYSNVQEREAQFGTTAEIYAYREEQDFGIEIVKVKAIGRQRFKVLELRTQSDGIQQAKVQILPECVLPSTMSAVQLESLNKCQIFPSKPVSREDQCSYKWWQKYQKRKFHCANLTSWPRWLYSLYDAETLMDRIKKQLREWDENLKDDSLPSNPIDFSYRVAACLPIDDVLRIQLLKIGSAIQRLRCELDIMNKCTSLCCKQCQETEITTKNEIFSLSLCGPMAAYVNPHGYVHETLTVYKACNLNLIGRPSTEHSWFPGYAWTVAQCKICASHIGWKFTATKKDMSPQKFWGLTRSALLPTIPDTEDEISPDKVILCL
T6 sequence (Q16531 whole entry partner): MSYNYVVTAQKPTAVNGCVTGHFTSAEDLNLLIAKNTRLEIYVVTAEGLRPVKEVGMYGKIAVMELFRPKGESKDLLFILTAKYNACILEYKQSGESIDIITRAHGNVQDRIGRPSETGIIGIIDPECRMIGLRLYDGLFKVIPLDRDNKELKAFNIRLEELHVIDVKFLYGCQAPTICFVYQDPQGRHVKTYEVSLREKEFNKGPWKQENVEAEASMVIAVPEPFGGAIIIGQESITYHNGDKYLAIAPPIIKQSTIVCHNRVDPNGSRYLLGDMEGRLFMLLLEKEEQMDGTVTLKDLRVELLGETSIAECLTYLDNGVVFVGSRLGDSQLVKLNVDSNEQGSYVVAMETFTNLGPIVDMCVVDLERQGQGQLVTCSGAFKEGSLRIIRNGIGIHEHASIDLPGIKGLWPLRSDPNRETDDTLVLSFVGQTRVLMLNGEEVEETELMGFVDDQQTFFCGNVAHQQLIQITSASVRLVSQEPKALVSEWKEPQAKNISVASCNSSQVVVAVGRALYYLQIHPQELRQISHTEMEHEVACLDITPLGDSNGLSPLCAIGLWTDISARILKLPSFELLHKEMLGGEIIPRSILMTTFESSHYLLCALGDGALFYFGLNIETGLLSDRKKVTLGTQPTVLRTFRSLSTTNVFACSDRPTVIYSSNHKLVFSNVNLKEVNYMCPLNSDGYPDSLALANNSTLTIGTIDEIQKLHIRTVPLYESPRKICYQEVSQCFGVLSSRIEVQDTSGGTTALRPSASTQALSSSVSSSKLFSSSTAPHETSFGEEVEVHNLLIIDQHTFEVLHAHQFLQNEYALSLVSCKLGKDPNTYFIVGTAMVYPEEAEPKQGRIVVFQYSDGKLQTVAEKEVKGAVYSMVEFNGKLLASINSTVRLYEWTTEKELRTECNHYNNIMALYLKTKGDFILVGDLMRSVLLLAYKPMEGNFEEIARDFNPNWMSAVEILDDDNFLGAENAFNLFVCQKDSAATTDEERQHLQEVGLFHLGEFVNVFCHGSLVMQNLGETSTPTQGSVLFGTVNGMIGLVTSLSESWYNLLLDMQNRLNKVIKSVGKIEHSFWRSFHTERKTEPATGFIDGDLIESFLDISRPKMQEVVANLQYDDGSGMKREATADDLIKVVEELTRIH
T2 sequence (P48729 whole entry): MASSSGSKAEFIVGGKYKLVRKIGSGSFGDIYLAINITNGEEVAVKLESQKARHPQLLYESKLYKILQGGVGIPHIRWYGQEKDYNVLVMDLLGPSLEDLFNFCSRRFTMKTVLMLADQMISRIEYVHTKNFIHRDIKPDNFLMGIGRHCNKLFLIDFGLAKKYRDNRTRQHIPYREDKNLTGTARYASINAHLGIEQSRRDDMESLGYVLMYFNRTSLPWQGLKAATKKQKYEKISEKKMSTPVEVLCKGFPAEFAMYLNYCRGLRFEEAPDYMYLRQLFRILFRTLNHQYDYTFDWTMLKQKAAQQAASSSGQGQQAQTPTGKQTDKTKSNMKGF
T2 sequence (Q96SW2 whole entry): as the sequence (Q96SW2 whole entry) above
T2 sequence (Q16531 whole entry partner): as the sequence (Q16531 whole entry partner) above
T4 sequence (Q9UKS7 whole entry): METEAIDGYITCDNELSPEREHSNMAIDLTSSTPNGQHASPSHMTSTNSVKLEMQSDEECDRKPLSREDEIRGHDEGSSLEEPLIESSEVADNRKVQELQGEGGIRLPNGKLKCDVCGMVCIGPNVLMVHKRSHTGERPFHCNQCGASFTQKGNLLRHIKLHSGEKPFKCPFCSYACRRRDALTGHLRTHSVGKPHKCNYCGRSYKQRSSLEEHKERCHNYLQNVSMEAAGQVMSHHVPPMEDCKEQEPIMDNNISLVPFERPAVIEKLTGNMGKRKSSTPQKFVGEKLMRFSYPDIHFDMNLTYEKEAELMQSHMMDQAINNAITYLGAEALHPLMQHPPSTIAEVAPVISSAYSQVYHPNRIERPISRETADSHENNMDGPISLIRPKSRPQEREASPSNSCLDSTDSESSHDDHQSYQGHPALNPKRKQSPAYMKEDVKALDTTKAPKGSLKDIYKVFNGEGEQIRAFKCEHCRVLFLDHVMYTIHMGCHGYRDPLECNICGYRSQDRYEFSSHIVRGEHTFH
T4 sequence (Q96SW2 whole entry): as the sequence (Q96SW2 whole entry) above
T4 sequence (Q16531 whole entry partner): as the sequence (Q16531 whole entry partner) above
T1 sequence (Q96SW2 whole entry): as the sequence (Q96SW2 whole entry) above
T5 sequence (Q9UKT9 whole entry): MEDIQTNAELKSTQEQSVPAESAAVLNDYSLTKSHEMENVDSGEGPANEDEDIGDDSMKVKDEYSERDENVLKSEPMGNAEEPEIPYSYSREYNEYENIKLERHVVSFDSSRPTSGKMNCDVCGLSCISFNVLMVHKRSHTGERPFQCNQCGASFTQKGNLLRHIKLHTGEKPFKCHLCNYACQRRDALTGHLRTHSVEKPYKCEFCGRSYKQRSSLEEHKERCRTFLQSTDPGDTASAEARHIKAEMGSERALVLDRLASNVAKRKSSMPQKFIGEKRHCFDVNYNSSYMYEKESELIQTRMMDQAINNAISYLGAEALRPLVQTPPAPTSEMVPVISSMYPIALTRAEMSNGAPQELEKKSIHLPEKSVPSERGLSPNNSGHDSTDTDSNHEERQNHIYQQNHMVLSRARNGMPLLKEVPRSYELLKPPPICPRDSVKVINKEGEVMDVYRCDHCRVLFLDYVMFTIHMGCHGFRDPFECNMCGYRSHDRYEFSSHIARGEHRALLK
T5 sequence (Q96SW2 whole entry): as the sequence (Q96SW2 whole entry) above
T5 sequence (Q16531 whole entry partner): as the sequence (Q16531 whole entry partner) above
T3 sequence (Q13422 whole entry): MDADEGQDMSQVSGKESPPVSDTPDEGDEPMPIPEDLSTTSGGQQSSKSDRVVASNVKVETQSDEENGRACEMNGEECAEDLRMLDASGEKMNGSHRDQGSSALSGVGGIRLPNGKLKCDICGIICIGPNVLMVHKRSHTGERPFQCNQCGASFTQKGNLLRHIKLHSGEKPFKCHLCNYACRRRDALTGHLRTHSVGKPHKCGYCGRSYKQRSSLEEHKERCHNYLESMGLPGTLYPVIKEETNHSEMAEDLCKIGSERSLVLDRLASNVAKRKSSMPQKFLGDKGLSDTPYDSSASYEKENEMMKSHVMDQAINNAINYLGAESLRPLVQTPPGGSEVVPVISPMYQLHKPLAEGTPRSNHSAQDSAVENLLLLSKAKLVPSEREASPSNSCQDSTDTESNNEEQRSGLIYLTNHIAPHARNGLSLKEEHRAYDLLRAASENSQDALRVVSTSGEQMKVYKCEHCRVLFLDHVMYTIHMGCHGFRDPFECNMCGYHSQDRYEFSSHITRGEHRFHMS
T3 sequence (Q96SW2 whole entry): as the sequence (Q96SW2 whole entry) above
T3 sequence (Q16531 whole entry partner): as the sequence (Q16531 whole entry partner) above

Compound: O=C1CCC(N2Cc3c(CN4CCC(N5CCc6cc(F)ccc65)CC4)cccc3C2=S)C(=O)N1 (stereo not drawn) [GT-08845, 3-(4-((4-(5-fluoroindolin-1-yl)piperidin-1-yl)methyl)-1-thioxoisoindolin-2-yl)piperidine-2,6-dione]
CK1α substrate protein remaining % (CK1α; [6]): B (80%< substrate protein remaining %≤ 100%) | IKZF 1 substrate protein remaining % (IKZF1; [6]): B (80%< substrate protein remaining %≤ 100%) | IKZF2 substrate protein remaining % (IKZF2; [6]): B (80%< substrate protein remaining %≤ 100%) | IKZF3 substrate protein remaining % (IKZF3; [6]): B (80%< substrate protein remaining %≤ 100%) | Wee1 substrate protein remaining % (WEE1; [6]): A (0% ≤ substrate protein remaining % ≤ 80%) | GSPT1 substrate protein remaining % (GSPT1; [6]): A (0% ≤ substrate protein remaining % ≤ 80%) | inhibition at 0.5 µM [1]: 40 to 53% | inhibition at 2 µM [1]: 80 to 100% | inhibition at 0.01 µM [2]: 20 to 30% | inhibition at 0.5 µM [2]: 40 to 50% | inhibition at 0.01 µM [3]: 50 to 60% | inhibition at 0.5 µM [3]: 60 to 70%

Compound: O=C1CCC(N2Cc3cc(CN4CCC(N5CCCc6cc(F)ccc65)CC4)ccc3C2=S)C(=O)N1 (stereo not drawn) [GT-09271, 3-(5-((4-(6-fluoro-3,4-dihydroquinolin-1(2H)-yl)piperidin-1-yl)methyl)-1-thioxoisoindolin-2-yl)piperidine-2,6-dione]
inhibition at 0.5 µM [1]: 60 to 80% | inhibition at 2 µM [1]: 80 to 100% | inhibition at 0.01 µM [4]: 40 to 60% | inhibition at 0.5 µM [4]: 40 to 60% | inhibition at 0.01 µM [3]: 20 to 30% | inhibition at 0.5 µM [3]: 40 to 50%

Compound: Cn1cc(C2CCN(Cc3ccc4c(c3)CN(C3CCC(=O)NC3=O)C4=S)CC2)c2ccc(F)cc21 (stereo not drawn) [GT-09267, 3-(5-((4-(6-fluoro-1-methyl-1H-indol-3-yl)piperidin-1-yl)methyl)-1-thioxoisoindolin-2-yl)piperidine-2,6-dione]
CK1α substrate protein remaining % (CK1α; [7]): B (80%< substrate protein remaining %≤ 100%) | IKZF 1 substrate protein remaining % (IKZF1; [7]): A (0% ≤ substrate protein remaining % ≤ 80%) | IKZF2 substrate protein remaining % (IKZF2; [7]): A (0% ≤ substrate protein remaining % ≤ 80%) | IKZF3 substrate protein remaining % (IKZF3; [7]): A (0% ≤ substrate protein remaining % ≤ 80%) | Wee1 substrate protein remaining % (WEE1; [7]): A (0% ≤ substrate protein remaining % ≤ 80%) | GSPT1 substrate protein remaining % (GSPT1; [7]): A (0% ≤ substrate protein remaining % ≤ 80%) | inhibition at 0.5 µM [1]: 53 to 60% | inhibition at 2 µM [1]: 80 to 100% | inhibition at 0.01 µM [2]: 70 to 80% | inhibition at 0.5 µM [2]: 80 to 100% | inhibition at 0.01 µM ([5]; read-out: Inhibition Rate at 10 nM (%)): 80 to 100% | inhibition at 0.5 µM ([5]; read-out: Inhibition Rate at 500 nM (%)): 80 to 100% | inhibition at 0.01 µM [4]: 80 to 100% | inhibition at 0.5 µM [4]: 80 to 100% | inhibition at 0.01 µM [3]: 5 to 10% | inhibition at 0.5 µM [3]: 70 to 80%

Compound: O=C1CCC(N2Cc3c(CN4CCC(N5C(=O)COc6cc(F)ccc65)CC4)cccc3C2=S)C(=O)N1 (stereo not drawn) [GT-08853, 3-(4-((4-(7-fluoro-3-oxo-2,3-dihydro-4H-benzo[b][1,4]oxazin-4-yl)piperidin-1-yl)methyl)-1-thioxoisoindolin-2-yl)piperidine-2,6-dione]
CK1α substrate protein remaining % (CK1α; [7]): B (80%< substrate protein remaining %≤ 100%) | IKZF 1 substrate protein remaining % (IKZF1; [7]): B (80%< substrate protein remaining %≤ 100%) | IKZF2 substrate protein remaining % (IKZF2; [7]): B (80%< substrate protein remaining %≤ 100%) | IKZF3 substrate protein remaining % (IKZF3; [7]): A (0% ≤ substrate protein remaining % ≤ 80%) | Wee1 substrate protein remaining % (WEE1; [7]): B (80%< substrate protein remaining %≤ 100%) | GSPT1 substrate protein remaining % (GSPT1; [7]): B (80%< substrate protein remaining %≤ 100%) | inhibition at 0.5 µM [1]: 60 to 80% | inhibition at 2 µM [1]: 80 to 100% | inhibition at 0.01 µM [2]: 30 to 40% | inhibition at 0.5 µM [2]: 40 to 50% | inhibition at 0.01 µM [3]: 5 to 10% | inhibition at 0.5 µM [3]: 40 to 50%

Second part, led by results:

inhibition at 0.5 µM [1]: 40 to 53% | inhibition at 2 µM [1]: 80 to 100%
Compound: O=C1CCC(N2Cc3c(CN4CCN(c5ncnc6scc(-c7ccccc7)c56)CC4)cccc3C2=S)C(=O)N1 (stereo not drawn) [GT-08920, 3-(4-((4-(5-phenylthieno[2,3-d]pyrimidin-4-yl)piperazin-1-yl)methyl)-1-thioxoisoindolin-2-yl)piperidine-2,6-dione]
inhibition at 0.01 µM [2]: 30 to 40% | inhibition at 0.5 µM [2]: 40 to 50% | inhibition at 0.01 µM [3]: 50 to 60% | inhibition at 0.5 µM [3]: 30 to 40%

inhibition at 0.5 µM [1]: 53 to 60% | inhibition at 2 µM [1]: 80 to 100%
Compound: O=C1CCC(N2Cc3c(CN4CC(C5CCOc6cc(F)ccc65)C4)cccc3C2=S)C(=O)N1 (stereo not drawn) [GT-08859, 3-(4-((3-(7-fluorochroman-4-yl)azetidin-1-yl)methyl)-1-thioxoisoindolin-2-yl)piperidine-2,6-dione]
CK1α substrate protein remaining % (CK1α; [7]): B (80%< substrate protein remaining %≤ 100%) | IKZF 1 substrate protein remaining % (IKZF1; [7]): B (80%< substrate protein remaining %≤ 100%) | IKZF2 substrate protein remaining % (IKZF2; [7]): B (80%< substrate protein remaining %≤ 100%) | IKZF3 substrate protein remaining % (IKZF3; [7]): B (80%< substrate protein remaining %≤ 100%) | Wee1 substrate protein remaining % (WEE1; [7]): B (80%< substrate protein remaining %≤ 100%) | GSPT1 substrate protein remaining % (GSPT1; [7]): A (0% ≤ substrate protein remaining % ≤ 80%) | inhibition at 0.01 µM [2]: 30 to 40% | inhibition at 0.5 µM [2]: 50 to 60% | inhibition at 0.01 µM [3]: 50 to 60% | inhibition at 0.5 µM [3]: 40 to 50%

inhibition at 0.5 µM [1]: 60 to 80% | inhibition at 2 µM [1]: 80 to 100%
Compound: O=C1CCC(N2Cc3c(CN4CCN(c5n[nH]c6cc(F)ccc56)CC4)cccc3C2=S)C(=O)N1 (stereo not drawn) [GT-08840, 3-(4-((4-(6-fluoro-1H-indazol-3-yl)piperazin-1-yl)methyl)-1-thioxoisoindolin-2-yl)piperidine-2,6-dione]
CK1α substrate protein remaining % (CK1α; [6]): B (80%< substrate protein remaining %≤ 100%) | IKZF 1 substrate protein remaining % (IKZF1; [6]): B (80%< substrate protein remaining %≤ 100%) | IKZF2 substrate protein remaining % (IKZF2; [6]): B (80%< substrate protein remaining %≤ 100%) | IKZF3 substrate protein remaining % (IKZF3; [6]): B (80%< substrate protein remaining %≤ 100%) | Wee1 substrate protein remaining % (WEE1; [6]): A (0% ≤ substrate protein remaining % ≤ 80%) | GSPT1 substrate protein remaining % (GSPT1; [6]): B (80%< substrate protein remaining %≤ 100%) | inhibition at 0.01 µM [4]: 40 to 60% | inhibition at 0.5 µM [4]: 40 to 60% | inhibition at 0.01 µM [3]: 50 to 60% | inhibition at 0.5 µM [3]: 60 to 70%

inhibition at 0.5 µM [1]: 60 to 80% | inhibition at 2 µM [1]: 80 to 100%
Compound: Cc1cc(N2CCN(Cc3ccc4c(c3)CN(C3CCC(=O)NC3=O)C4=S)CC2)cc(C)n1 (stereo not drawn) [GT-09247, 3-(5-((4-(2,6-dimethylpyridin-4-yl)piperazin-1-yl)methyl)-1-thioxoisoindolin-2-yl)piperidine-2,6-dione]
inhibition at 0.01 µM [2]: 50 to 60% | Inhibition Rate at 500 nM (%) ([2]; MM.1S, 500 nM, 96 hours): la7 | inhibition at 0.01 µM [4]: 40 to 60% | inhibition at 0.5 µM [4]: 40 to 60% | inhibition at 0.01 µM [3]: 20 to 30% | inhibition at 0.5 µM [3]: 40 to 50%

inhibition at 0.5 µM [1]: 60 to 80% | inhibition at 2 µM [1]: 80 to 100%
Compound: O=C1CCC(N2Cc3c(CN4CCN(c5ncnc6sc7c(c56)CCC7)CC4)cccc3C2=S)C(=O)N1 (stereo not drawn) [GT-08925, 3-(4-((4-(6,7-dihydro-5H-cyclopenta[4,5]thieno[2,3-d]pyrimidin-4-yl)piperazin-1-yl)methyl)-1-thioxoisoindolin-2-yl)piperidine-2,6-dione]
CK1α substrate protein remaining % (CK1α; [7]): B (80%< substrate protein remaining %≤ 100%) | IKZF 1 substrate protein remaining % (IKZF1; [7]): B (80%< substrate protein remaining %≤ 100%) | IKZF2 substrate protein remaining % (IKZF2; [7]): A (0% ≤ substrate protein remaining % ≤ 80%) | IKZF3 substrate protein remaining % (IKZF3; [7]): A (0% ≤ substrate protein remaining % ≤ 80%) | Wee1 substrate protein remaining % (WEE1; [7]): A (0% ≤ substrate protein remaining % ≤ 80%) | GSPT1 substrate protein remaining % (GSPT1; [7]): B (80%< substrate protein remaining %≤ 100%) | inhibition at 0.01 µM [3]: 60 to 70% | inhibition at 0.5 µM [3]: 60 to 70%

inhibition at 0.5 µM [1]: 30 to 40% | inhibition at 2 µM [1]: 60 to 80%
Compound: Cc1ccc(N2CCN(Cc3cccc4c3CN(C3CCC(=O)NC3=O)C4=S)CC2)c(C)c1 (stereo not drawn) [GT-08504, 3-(4-((4-(2,4-dimethylphenyl)piperazin-1-yl)methyl)-1-thioxoisoindolin-2-yl)piperidine-2,6-dione]
CK1α substrate protein remaining % (CK1α; [6]): B (80%< substrate protein remaining %≤ 100%) | IKZF 1 substrate protein remaining % (IKZF1; [6]): B (80%< substrate protein remaining %≤ 100%) | IKZF2 substrate protein remaining % (IKZF2; [6]): B (80%< substrate protein remaining %≤ 100%) | IKZF3 substrate protein remaining % (IKZF3; [6]): A (0% ≤ substrate protein remaining % ≤ 80%) | Wee1 substrate protein remaining % (WEE1; [6]): A (0% ≤ substrate protein remaining % ≤ 80%) | GSPT1 substrate protein remaining % (GSPT1; [6]): A (0% ≤ substrate protein remaining % ≤ 80%) | inhibition at 0.01 µM [2]: 30 to 40% | inhibition at 0.5 µM [2]: 50 to 60% | inhibition at 0.01 µM [4]: 40 to 60% | inhibition at 0.5 µM [4]: 40 to 60% | inhibition at 0.01 µM [3]: 20 to 30% | inhibition at 0.5 µM [3]: 40 to 50%
